Test results reported in patent US9573938B2 (priority 2012, dated 2017).

molecular target: 2009 H1N1 influenza A endonuclease (PAN domain) (Influenza A virus, UniProt C3W5S0); assay: biochemical; design: species or system Influenza A (pandemic 2009 H1N1); settings: 500 nM or 50 nM enzyme; fluorescence change over time at 37 degrees Celsius; read-out: IC50 (uM) using either 500 nM or 50 nM enzyme

SMILES | IC50 [µM]
O=c1[nH]c(-c2cccc(-c3nnn[nH]3)c2)ncc1O [2-(3-(1H-Tetrazol-5-yl)phenyl)-5-hydroxypyrimidin-4(3H)-one] | 0.48
O=c1[nH]cc(-c2ccc(F)cc2)cc1O [5-(4-Fluorophenyl)-3-hydroxypyridin-2(1H)-one] | 0.73
O=c1[nH]c(-c2ccc(-c3nnn[nH]3)cc2)ncc1O [2-(4-(1H-Tetrazol-5-yl)phenyl)-5-hydroxypyrimidin-4(3H)-one] | 0.15
O=c1[nH]nc(-c2ccc(-c3nnn[nH]3)cc2)cc1O [6-(4-(1H-Tetrazol-5-yl)phenyl)-4-hydroxypyridazin-3(2H)-one] | 3
O=c1[nH]c(-c2ccc(F)cc2)ccc1O [6-(4-Fluoro-phenyl)-3-hydroxypyridin-2(1H)-one] | 0.43
N#Cc1ccc(-c2ncc(O)c(=O)[nH]2)cc1 [4-(5-Hydroxy-6-oxo-1,6-dihydropyrimidin-2-yl)benzonitrile] | 0.52
N#Cc1cccc(-c2ncc(O)c(=O)[nH]2)c1 [3-(5-Hydroxy-6-oxo-1,6-dihydropyrimidin-2-yl)benzonitrile] | 0.25

same assay, conditions: IC50 (uM) using either 500 nM or 50 nM enzyme, fluorescence change over time at 37 degrees Celsius

SMILES | IC50 [µM]
O=c1[nH]cc(-c2cccc(-c3nnn[nH]3)c2)cc1O [5-[3-(1H-Tetrazol-5-yl)phenyl]-3-hydroxypyridin-2(1H)-one] | 0.85
O=c1[nH]cnc(-c2ccc(F)cc2)c1O [6-(4-Fluorophenyl)-5-hydroxypyrimidin-4(3H)-one] | 193
O=C(O)c1cccc(-c2cc(O)c(=O)[nH]c2-c2cccc(C(=O)O)c2)c1 [3,3′-(5-Hydroxy-6-oxo-1,6-dihydropyridine-2,3-diyl)dibenzoic acid] | 0.7
O=c1[nH]c(-c2ccc(-c3nnn[nH]3)cc2)ccc1O [6-[4-(1H-tetrazol-5-yl)phenyl]-3-hydroxypyridin-2(1H)-one] | 0.85
O=C(O)c1cccc(-c2c[nH]c(=O)c(O)c2)c1 [3-(5-Hydroxy-6-oxo-1,6-dihydropyridin-3-yl)benzoic acid] | 1.79
N#Cc1ccc(-c2c[nH]c(=O)c(O)c2)cc1 [5-(p-Cyanophenyl-3-hydroxypyridin-2(1H)-one] | 6.07
O=c1[nH]c(Br)c(Br)cc1O [5,6-Dibromo-3-hydroxypyridin-2(1H)-one] | 1.5
COc1cccc(-c2ccc(O)c(=O)[nH]2)c1 [6-(3-Methoxyphenyl)-3-hydroxypyridin-2(1H)one] | 0.54
COc1ccc(-c2ccc(O)c(=O)[nH]2)cc1 [3-Hydroxy-6-(4-methoxyphenyl)pyridin-2(1H)-one] | 1.2
O=C(O)c1cccc(-c2cc(O)c(=O)[nH]c2-c2ccc(F)cc2)c1 [3-(2-(4-Fluorophenyl)-5-hydroxy-6-oxo-1,6-dihydropyridin-3-yl)benzoic acid] | 0.035
O=c1[nH]c(-c2cccc(F)c2)ccc1O [6-(3-Fluorophenyl)-3-hydroxypyridin-2(1H)-one] | 0.53
O=C(O)c1ccc(-c2c[nH]c(=O)c(O)c2)cc1 [4-(5-Hydroxy-6-oxo-1,6-dihydropyridin-3-yl)benzoic acid] | 0.51
O=c1[nH]cc(Cc2ccc(F)cc2)cc1O [5-(4-Fluorobenzyl)-3-hydroxypyridin-2(1H)-one] | 8.6
N#Cc1ccc(-c2ccc(O)c(=O)[nH]2)cc1 [6-(4-Cyanophenyl-3-hydroxypyridin-2(1H)-one] | 1.2
O=c1[nH]ncc(-c2ccc(F)cc2)c1O [5-(4-Fluorophenyl)-4-hydroxypyridazin-3(2H)-one] | > 200
O=c1[nH]cc(-c2ccc(-c3nnn[nH]3)cc2)cc1O [5-[4-(1H-Tetrazol-5-yl)phenyl]-3-hydroxypyridin-2(1H)-one] | 0.37
O=c1[nH]c(-c2ccc(-c3nnn[nH]3)cc2)c(-c2ccc(F)cc2)cc1O [6-(4-(1H-Tetrazol-5-yl)phenyl)-5-(4-fluorophenyl)-3-hydroxypyridin-2(1H)-one] | 0.018
N#Cc1ccc(Nc2cc(O)c(=O)[nH]c2-c2ccc(F)cc2)cc1 [4-((2-(4-Fluorophenyl)-5-hydroxy-6-oxo-1,6-dihydropyridin-3-yl)amino)benzonitrile] | 1

SMILES | IC50 [µM]
O=c1[nH]cc(C2CCCCC2)cc1O [5-Cyclohexyl-3-hydroxypyridin-2(1H)-one] | 2.1
O=c1[nH]c(-c2ccc(F)cc2)c(-c2cccc(-c3nnn[nH]3)c2)cc1O [5-(3-(1H-Tetrazol-5-yl)phenyl)-6-(4-fluorophenyl)-3-hydroxypyridin-2(1H)-one] | 0.034
O=c1[nH]cc(-c2cccc(F)c2)cc1O [5-(3-Fluorophenyl-3-hydroxypyridin-2(1H)-one] | 0.74
O=c1[nH]c(-c2cccc(F)c2)c(-c2cccc(F)c2)cc1O [5,6-bis(3-Fluorophenyl)-3-hydroxypyridin-2(1H)-one] | 0.044
O=c1[nH]c(C2CCCCC2)ccc1O [6-Cyclohexyl-3-hydroxypyridin-2(1H)-one] | 2.5
O=c1[nH]c(Br)c(-c2ccc(F)cc2)cc1O [6-Bromo-5-(4-fluorophenyl)-3-hydroxypyridin-2(1H)-one] | 4.2
O=c1[nH]c(-c2ccc(C(F)(F)F)cc2)ccc1O [3-Hydroxy-6-(4-(trifluoromethyl)phenyl)pyridin-2(1H)-one] | 0.4
CC(C)(C)c1ccc(-c2ccc(O)c(=O)[nH]2)cc1 [6-(4-(tert-Butyl)phenyl)-3-hydroxypyridin-2(1H)-one] | 1.6
O=C(O)c1ccc(-c2cc(O)c(=O)[nH]c2-c2ccc(C(=O)O)cc2)cc1 [4,4′-(5-hydroxy-6-oxo-1,6-dihydropyridine-2,3-diyl)dibenzoic acid] | 0.9
O=c1[nH]cc(Cl)cc1O [5-Chloro-3-hydroxypyridin-2(1H)-one] | 5
O=c1[nH]c(-c2ccc(O)c(O)c2)ccc1O [6-(3,4-Dihydroxyphenyl)-3-hydroxypyridin-2(1H)-one] | 0.6
NC(=O)c1cccc(-c2cc(O)c(=O)[nH]c2-c2cccc(C(N)=O)c2)c1 | 0.11
O=c1[nH]cc(Br)cc1O [5-Bromo-3-hydroxypyridin-2(1H)-one] | 5
NC(=O)c1ccc(-c2cc(O)c(=O)[nH]c2-c2ccc(C(N)=O)cc2)cc1 | 0.23
O=c1[nH]c(Cc2ccc(-c3ccccc3)cc2)c(-c2ccc(F)cc2)cc1O [6-([1,1′-Biphenyl]-4-ylmethyl)-5-(4-fluorophenyl)-3-hydroxypyridin-2(1H)-one] | 0.12
O=c1[nH]c(C2=CCCCC2)ccc1O [6-(Cyclohex-1-en-1-yl)-3-hydroxypyridin-2(1H)-one] | 0.75
N#Cc1cccc(-c2cc(O)c(=O)[nH]c2-c2ccc(F)cc2)c1 [3-(2-(4-Fluorophenyl)-5-hydroxy-6-oxo-1,6-dihydropyridin-3-yl)benzonitrile] | 0.049
O=c1[nH]c(-c2ccc([N+](=O)[O-])cc2)c(-c2ccc([N+](=O)[O-])cc2)cc1O [3-Hydroxy-5,6-bis(4-nitrophenyl)pyridin-2(1H)-one] | 0.72

test system: not given; assay: not given; settings: not given

SMILES | melting point [°C]
O=c1[nH]cnc(-c2ccc(F)cc2)c1O [6-(4-Fluorophenyl)-5-hydroxypyrimidin-4(3H)-one] | 285 to 287
O=c1[nH]c(-c2ccc(F)cc2)c(-c2ccc(-c3nnn[nH]3)cc2)cc1O [5-[4-(1H-Tetrazol-5-yl)phenyl]-6-(4-fluorophenyl)-3-hydroxypyridin-2(1H)-one] | 185 to 188
O=c1[nH]ncc(-c2ccc(F)cc2)c1O [5-(4-Fluorophenyl)-4-hydroxypyridazin-3(2H)-one] | 274 to 276
O=c1[nH]c(-c2ccc(F)cc2)c(-c2ccc(F)cc2)cc1O [5,6-bis(4-Fluorophenyl)-3-hydroxypyridin-2(1H)-one] | 152 to 157
